According to patent publication US10722516B2, “Use of landiolol hydrochloride in the long-term treatment of tachyarrhythmias” (AOP Orphan Pharmaceuticals AG, priority 2013, dated 2020):
Entries after “also recorded” stand apart in the source; their conditions may differ. Structures can show the parent of a compound that is named as a salt.

What was measured:
healthy volunteers [1] = assay: 24 h long-term infusion study, AOP LDLL600 against esmolol: heart rate; type: in vivo, human; conditions: for heart rate: Table 1
Procedure: (§1) A single centre prospective, randomized, double blind, crossover, pharmacokinetic, safety and tolerability study to compare long-term infusion administration of AOP LDLL600 against esmolol in healthy volunteers was performed.
(§2) Landiolol hydrochloride lyophilized (LDLL600) comprises 600 mg landiolol hydrochloride, 600 mg mannitol, pH 6.5. The primary packing of LDLL600 is 50 ml vial, the reconstitution volume is 50 ml and the final product concentration is 12 mg/mL landiolol HCl.
(§3) 12 subjects were administered AOP LDLL600 or Esmolol (Brevibloc, 2500 mg/250 ml) in 1:1 ratio in double-blind, randomized, cross-over setting. PK, systemic cardiovascular and local tolerability and safety of the 24 h-long term infusions of three dose levels of both IMPs during each treatment period were assessed.
(§4) Landiolol was infused over 24 h in a dose of 10 μg/KG/min (2 hrs), followed by 20 μg/KG/min (2 hrs), followed by 40 μg/KG/min for 20 hrs.
(§5) Dosing algorithm was body weight divided by 20, 10 and 5 in ml/h giving 10, 20 and 40 μg/KG/min at a concentration of 12 mg/ml. No severe adverse drug reactions, mild local reactions, 1 severe local reaction (Esmolol High Dose).
(§6) Landiolol was infused over 24 h in a dose of 10, 20 and 40 μg/KG/min, i.e. 10 μg/KG/min landiolol were administered for 2 hrs, followed by 2 hrs administration of 20 μg/KG/min and further followed by 20 hrs administration of 40 μg/KG/min.
Post-infusion follow up measurements were performed immediately after 20 hrs administration study, i.e. 2, 4 min etc. after stop of landiolol administration.

healthy volunteers [2] = assay: 24 h long-term infusion study: local tolerability and safety; type: in vivo, human
Procedure: as §1, §2, §3, §4, §5, §6

[3] = LD infusion (landiolol 10, esmolol 50 μg/kg/min), 6 min
[4] = LD infusion (landiolol 10, esmolol 50 μg/kg/min), 8 min
[5] = LD infusion (landiolol 10, esmolol 50 μg/kg/min), 12 min
[6] = LD infusion (landiolol 10, esmolol 50 μg/kg/min), 16 min
[7] = LD infusion (landiolol 10, esmolol 50 μg/kg/min), 20 min
[8] = LD infusion (landiolol 10, esmolol 50 μg/kg/min), 30 min
[9] = LD infusion (landiolol 10, esmolol 50 μg/kg/min), 60 min
[10] = LD infusion (landiolol 10, esmolol 50 μg/kg/min), 90 min
[11] = LD infusion (landiolol 10, esmolol 50 μg/kg/min), 2 h
[12] = MD infusion (landiolol 20, esmolol 100 μg/kg/min, after 2 h LD), 2 min
[13] = MD infusion (landiolol 20, esmolol 100 μg/kg/min, after 2 h LD), 3 min
[14] = MD infusion (landiolol 20, esmolol 100 μg/kg/min, after 2 h LD), 4 min
[15] = MD infusion (landiolol 20, esmolol 100 μg/kg/min, after 2 h LD), 6 min
[16] = MD infusion (landiolol 20, esmolol 100 μg/kg/min, after 2 h LD), 8 min
[17] = MD infusion (landiolol 20, esmolol 100 μg/kg/min, after 2 h LD), 12 min
[18] = MD infusion (landiolol 20, esmolol 100 μg/kg/min, after 2 h LD), 16 min
[19] = MD infusion (landiolol 20, esmolol 100 μg/kg/min, after 2 h LD), 20 min
[20] = MD infusion (landiolol 20, esmolol 100 μg/kg/min, after 2 h LD), 30 min
[21] = MD infusion (landiolol 20, esmolol 100 μg/kg/min, after 2 h LD), 60 min
[22] = MD infusion (landiolol 20, esmolol 100 μg/kg/min, after 2 h LD), 90 min
[23] = MD infusion (landiolol 20, esmolol 100 μg/kg/min, after 2 h LD), 2 h
[24] = 24 h infusion, three dose levels

CC1(C)OC[C@@H](COC(=O)CCc2ccc(OC[C@@H](O)CNCCNC(=O)N3CCOCC3)cc2)O1 [Landiolol, (−)-[(S)-2,2-dimethyl-1,3-dioxolan-4-yl]methyl 3-[4-[(S)-2-hydroxy-3-(2-morpholinocarbonylamino)ethylamino]propoxy]phenylpropionate monohydrochloride]
heart rate, Mean (SD) (healthy volunteers [1]; LD infusion (landiolol 10, esmolol 50 μg/kg/min), 4 min): 64.6 (6.97) beats per minute | change of heart rate from predose, Mean (SD) (healthy volunteers [1]; [3]): −1.7 (7.97) beats per minute | heart rate, Mean (SD) (healthy volunteers [1]; [3]): 65.7 (8.78) beats per minute | change of heart rate from predose, Mean (SD) (healthy volunteers [1]; [4]): −3.6 (9.07) beats per minute | heart rate, Mean (SD) (healthy volunteers [1]; [4]): 63.8 (6.57) beats per minute | change of heart rate from predose, Mean (SD) (healthy volunteers [1]; [5]): −4.7 (10.99) beats per minute | heart rate, Mean (SD) (healthy volunteers [1]; [5]): 62.7 (7.71) beats per minute | change of heart rate from predose, Mean (SD) (healthy volunteers [1]; [6]): −7.1 (5.32) beats per minute | heart rate, Mean (SD) (healthy volunteers [1]; [6]): 60.3 (6.72) beats per minute | change of heart rate from predose, Mean (SD) (healthy volunteers [1]; [7]): −7.3 (10.51) beats per minute | heart rate, Mean (SD) (healthy volunteers [1]; [7]): 60.0 (6.05) beats per minute | change of heart rate from predose, Mean (SD) (healthy volunteers [1]; [8]): −7.8 (12.55) beats per minute | heart rate, Mean (SD) (healthy volunteers [1]; [8]): 59.5 (8.55) beats per minute | change of heart rate from predose, Mean (SD) (healthy volunteers [1]; [9]): −9.6 (11.89) beats per minute | heart rate, Mean (SD) (healthy volunteers [1]; [9]): 57.8 (8.05) beats per minute | change of heart rate from predose, Mean (SD) (healthy volunteers [1]; [10]): −9.3 (11.33) beats per minute | heart rate, Mean (SD) (healthy volunteers [1]; [10]): 58.1 (7.14) beats per minute | change of heart rate from predose, Mean (SD) (healthy volunteers [1]; [11]): −11.2 (11.75) beats per minute | heart rate, Mean (SD) (healthy volunteers [1]; [11]): 56.2 (5.89) beats per minute | change of heart rate from predose, Mean (SD) (healthy volunteers [1]; MD Predose (end of 2 h LD)): −11.2 (11.75) beats per minute | heart rate, Mean (SD) (healthy volunteers [1]; MD Predose (end of 2 h LD)): 56.2 (5.89) beats per minute | change of heart rate from predose, Mean (SD) (healthy volunteers [1]; [12]): −11.1 (10.73) beats per minute | heart rate, Mean (SD) (healthy volunteers [1]; [12]): 56.3 (6.48) beats per minute | change of heart rate from predose, Mean (SD) (healthy volunteers [1]; [13]): −9.8 (7.90) beats per minute | heart rate, Mean (SD) (healthy volunteers [1]; [13]): 57.6 (5.02) beats per minute | change of heart rate from predose, Mean (SD) (healthy volunteers [1]; [14]): −10.9 (9.26) beats per minute | heart rate, Mean (SD) (healthy volunteers [1]; [14]): 56.4 (6.87) beats per minute | change of heart rate from predose, Mean (SD) (healthy volunteers [1]; [15]): −11.2 (11.10) beats per minute | heart rate, Mean (SD) (healthy volunteers [1]; [15]): 56.2 (7.86) beats per minute | change of heart rate from predose, Mean (SD) (healthy volunteers [1]; [16]): −9.7 (10.96) beats per minute | heart rate, Mean (SD) (healthy volunteers [1]; [16]): 57.7 (7.24) beats per minute | change of heart rate from predose, Mean (SD) (healthy volunteers [1]; [17]): −12.8 (10.17) beats per minute | heart rate, Mean (SD) (healthy volunteers [1]; [17]): 54.5 (6.07) beats per minute | change of heart rate from predose, Mean (SD) (healthy volunteers [1]; [18]): −10.4 (11.42) beats per minute | heart rate, Mean (SD) (healthy volunteers [1]; [18]): 56.9 (6.88) beats per minute | change of heart rate from predose, Mean (SD) (healthy volunteers [1]; [19]): −12.8 (10.52) beats per minute | heart rate, Mean (SD) (healthy volunteers [1]; [19]): 54.5 (6.86) beats per minute | change of heart rate from predose, Mean (SD) (healthy volunteers [1]; [20]): −9.0 (11.92) beats per minute | heart rate, Mean (SD) (healthy volunteers [1]; [20]): 58.3 (8.53) beats per minute | change of heart rate from predose, Mean (SD) (healthy volunteers [1]; [21]): −11.3 (9.86) beats per minute | heart rate, Mean (SD) (healthy volunteers [1]; [21]): 56.0 (5.17) beats per minute | change of heart rate from predose, Mean (SD) (healthy volunteers [1]; [22]): −10.2 (10.81) beats per minute | heart rate, Mean (SD) (healthy volunteers [1]; [22]): 57.2 (6.79) beats per minute | change of heart rate from predose, Mean (SD) (healthy volunteers [1]; [23]): −11.3 (9.41) beats per minute | heart rate, Mean (SD) (healthy volunteers [1]; [23]): 56.1 (7.38) beats per minute | heart rate, Mean (SD) (healthy volunteers [1]; Predose (before first IMP administration)): 67.3 (8.18) beats per minute | heart rate (healthy volunteers [1]; Control (before administration)): 67.8 beats per minute | heart rate (healthy volunteers [1]; high dose (landiolol 40, esmolol 200 μg/kg/min), time 720 min): 57.5 beats per minute | heart rate (healthy volunteers [1]; high dose (landiolol 40, esmolol 200 μg/kg/min), time 1200 min): 53.6 beats per minute | heart rate (healthy volunteers [1]; low dose (landiolol 10, esmolol 50 μg/kg/min), time 12 min): 62.7 beats per minute | heart rate (healthy volunteers [1]; low dose (landiolol 10, esmolol 50 μg/kg/min), time 16 min): 60.3 beats per minute | heart rate (healthy volunteers [1]; low dose (landiolol 10, esmolol 50 μg/kg/min), time 30 min): 59.5 beats per minute | heart rate (healthy volunteers [1]; low dose (landiolol 10, esmolol 50 μg/kg/min), time 60 min): 57.8 beats per minute | heart rate (healthy volunteers [1]; low dose (landiolol 10, esmolol 50 μg/kg/min), time 120 min): 56.2 beats per minute | heart rate (healthy volunteers [1]; medium dose (landiolol 20, esmolol 100 μg/kg/min), time 240 min): 56.1 beats per minute | heart rate (healthy volunteers [1]; time after administration 12 min (end at 1440 min)): 63.5 beats per minute | heart rate (healthy volunteers [1]; time after administration 16 min): 67 beats per minute | heart rate (healthy volunteers [1]; time after administration 30 min): 70 beats per minute | heart rate (healthy volunteers [1]; time after administration 60 min): 69.2 beats per minute | heart rate (healthy volunteers [1]; time after administration 120 min): 66.8 beats per minute | overshoot effect on heart rate (healthy volunteers [1]; after termination of long term administration, listed as landiolol-hydrochloride, monohydrochloride): avoiding any overshoot effect; also recorded: no significant overshoot effect occurs | tolerance effect (healthy volunteers [1]; long term administration): without showing any tolerance effects | heart rate effect during administration (healthy volunteers [1]; long term administration, listed as landiolol-hydrochloride, monohydrochloride): persistent reduction of heart rate; also recorded: significantly lower than the heart rate and/or blood pressure values achieved under esmolol long-term treatment | local tolerability compared to Esmolol (healthy volunteers [2]; 24 h infusion): clearly better | local reactions (percent of subjects) (healthy volunteers [2]; [24]): 16.7% | local reactions (subjects/total) (healthy volunteers [2]; [24]): 2/12 | local venous skin irritations or inflammatory reactions at the site of injection (healthy volunteers [2]; long term treatment): did not bring about any blushing, erythema, pain, inflammation, induration, phlebitis and thrombosis
